Data as given in patent publication US9073858B2, “Methods of targeted drug development” (priority 2010, dated 2015).
Where “and” joins values, the source holds several entries; their conditions need not be identical. Equal values may be shown once. Read-outs that look alike come from different tables or passages of the source.

Experiments:
H1975 cells = assay: H1975 Cell Proliferation Assay (MTT); type: cell-based; conditions: Homo sapiens, read-out: IC50 Value (μM) H1975 Cells
Description: (§1) Cell proliferation is determined using the MTT assay. The MTT cell proliferation assay is a colorimetric assay system which measures the reduction of a tetrazolium component (MTT) into an insoluble formazan product by the mitochondria of viable cells. After incubation of the cells with the MTT reagent, DMSO is added to solubilize the colored crystals and the samples read at a wavelength of 560 nm. The amount of color produced is directly proportional to the number of viable cells.
(§2) 3-(4,5-Dimethylthiazol-2-yl)-2,5-diphenyltetrazolium Bromide (MTT) dye (Aesar, cat no. L11939) was prepared at 5 mg/ml in PBS. To each well, 20 μl of MTT solution was added to existing media and mixed thoroughly with 5 mins of gentle shaking at room temperature. Plates were incubated at 37° C., 5% CO2 for approximately 2 hrs. After 2-3 hrs incubation, media was aspirated out and plates were patted dry. […] Plates were incubated at 37° C., 5% CO2 for 10 min and mix thoroughly with 5 mins of gentle shaking at room temperature. Plates were read on the PolarStar plate reader at 560 nm. Percent (%) inhibition was calculated as 100%−(OD560 nm experimental-blank)×100%/OD560 nm control-blank. Blank=wells+serum free media+0.5% DMSO. Experimental=wells+cells+treatment+0.5% DMSO. Control=wells+cells+0.5% DMSO. IC50 values were calculated in GraphPad Prism using non-linear regression curve fitting. All statistical analyses was done either in GraphPad Prism or Microsoft Excel.
Briefly, compounds are added to cells plated in 96-well plates. The cells are allowed to grow for 72 hours before MTT treatment. The effect of the compounds on cell proliferation is analyzed using GraphPad Prism.

A549 cells = assay: A549 Cell Proliferation Assay (MTT); type: cell-based; conditions: Homo sapiens
Description: Cell proliferation is determined using the MTT assay. The MTT cell proliferation assay is a colorimetric assay system which measures the reduction of a tetrazolium component (MTT) into an insoluble formazan product by the mitochondria of viable cells. After incubation of the cells with the MTT reagent, DMSO is added to solubilize the colored crystals and the samples read at a wavelength of 560 nm. The amount of color produced is directly proportional to the number of viable cells. […] L11939) was prepared at 5 mg/ml in PBS. […] Plates were read on the PolarStar plate reader at 560 nm. […] IC50 values were calculated in GraphPad Prism using non-linear regression curve fitting. All statistical analyses was done either in GraphPad Prism or Microsoft Excel. […] Briefly, compounds are added to cells plated in 96-well plates. The cells are allowed to grow for 72 hours before MTT treatment. The effect of the compounds on cell proliferation is analyzed using GraphPad Prism. A549 cells are a non-small cell lung cancer cell line that have wild type EGFR and p53 but have point mutations in KRAS gene which transform it into an oncogene. […] SH30071.03, lot no. ATB31500), 1% Pen Strep (Gibco, cat no. […] On day 2, working solutions of compounds at 200× were prepared. […] Plates were incubated for 72 hours before analyzing them with MTT (as described above).

HT-29 cells = assay: HT-29 Cell Proliferation Assay (MTT); type: cell-based
Description: as §1, §2
Briefly, compounds are added to cells plated in 96-well plates. […] The effect of the compounds on cell proliferation is analyzed using GraphPad Prism.
HT-29 cells are a colon cancer cell line that is utilized to assess the ability of compounds to inhibit the proliferation of cells in tumors of the colon.
For the HT-29 cell proliferation assay, on day 1, HT-29 cells are seeded at 3,000 cells/well in 100 μl media containing 10% FBS, 1× Pen-Strep, and 1× L-Glutamine in 96 well, tissue culture-treated plates. […] Working solutions of compounds were prepared (at […] in 100% DMSO). To 200 μl media, 20 μl of a 5× compound (diluted in plain media) was added for a final DMSO concentration of 0.5%. […] On day 5, plates were analyzed for cell growth using the MTT assay.

[1] = Stability on incubation with human liver microsomes (HLM); type: in vitro ADME; conditions: percentage left after incubation with human liver microsomes for 30 minutes
Description: (§3) Stability of hydroxyquinoline analogs were determined (see e.g., TABLE 18). MLM represents the percentage left after incubation with mouse liver microsomes for 30 minutes. HLM represents the percentage left after incubation with human liver microsomes for 30 minutes.
(§4) Stability of analogs having a benzaldehyde derived ring were determined (see e.g., TABLE 18). MLM represents the percentage left after incubation with mouse liver microsomes for 30 minutes. HLM represents the percentage left after incubation with human liver microsomes for 30 minutes.

[2] = Stability on incubation with mouse liver microsomes (MLM); type: in vitro ADME; conditions: percentage left after incubation with mouse liver microsomes for 30 minutes
Description: as §3, §4

[3] = A549, 72 h, read-out: IC50 Value (μM) A549 Cells
[4] = Homo sapiens, HT-29, 72 h, read-out: IC50 Value (μM) HT-29 Cells
[5] = A549, MTT, 72 hours, read-out: IC50 Value (μM) A549 Cells
[6] = Homo sapiens, HT-29, MTT, 72 hrs, read-out: IC50 Value (μM) HT-29 Cells

| Structure (SMILES) | IC50 (H1975 cells; NCI-H1975, 72 h) | IC50 (A549 cells; [3]) | IC50 (HT-29 cells; [4]) | further results |
| --- | --- | --- | --- | --- |
| Oc1c(C(Nc2ncc(F)cc2F)c2ccc(Cl)cc2Cl)ccc2cccnc12 (stereo not shown) [AD4-13175] | 3.8 µM | 0.17 µM | 2 µM | – |
| Oc1c(C(Nc2ccc(C(F)(F)F)cn2)c2ccc(Cl)c(C(F)(F)F)c2)ccc2cccnc12 (stereo not shown) [AD4-13032] | 0.21 µM | 0.17 µM | – | – |
| Cc1cc(Cl)cnc1NC(c1ccc(Cl)cc1)c1ccc2cccnc2c1O (stereo not shown) [AD4-13154] | 0.15 µM | 0.17 µM | 0.76 µM | – |
| Cc1cc(NC(c2ccc(C(F)(F)F)cc2)c2ccc3cccnc3c2O)ncc1Cl (stereo not shown) [AD4-13121] | 0.33 µM | 0.18 µM | 1.8 µM | – |
| CCc1c(Cl)cnc(NC(c2ccc(Cl)cc2Cl)c2ccc3cccnc3c2O)c1F (stereo not shown) [AD4-13218] | – | 0.086 µM | 0.92 µM | IC50 (A549 cells; A549, read-out: IC50, cell proliferation in A549 or H1975 cells): ≤ 0.1 µM |
| Oc1c(C(Nc2ncc(F)cc2F)c2ccc(Cl)c(Cl)c2)ccc2cccnc12 (stereo not shown) [AD4-13182] | 1.8 µM | 0.19 µM | 8.3 µM | – |
| Cc1cccc(NC(c2ccc(Cl)c(Cl)c2)c2cc(Cl)c3cccnc3c2O)n1 (stereo not shown) [AD4-13081] | – | – | – | IC50 (H1975 cells; NCI-H1975, MTT, 72 hours): 0.33 µM; IC50 (A549 cells; [5]): 0.17 µM; IC50 (HT-29 cells; [6]): 6.2 µM |
| Oc1c(C(Nc2ccc(C(F)(F)F)cn2)c2ccc(C(F)(F)F)cc2)ccc2cccnc12 (stereo not shown) [AD4-13028] | 0.26 µM | 0.14 µM | – | – |
| Oc1c(C(Nc2ccc(Cl)cn2)c2cc(C(F)(F)F)ccc2Cl)ccc2cccnc12 (stereo not shown) [AD4-13052] | 0.24 µM | 0.13 µM | – | – |
| Cc1cc(Cl)cnc1NC(c1ccc2cccnc2c1O)c1c(Cl)cccc1Cl (stereo not shown) [AD4-13142] | 0.95 µM | 0.14 µM | 3.1 µM | – |
| Oc1c(C(Nc2ncc(F)cc2F)c2ccc(F)cc2Cl)ccc2cccnc12 (stereo not shown) [AD4-13146] | 0.24 µM | 0.14 µM | 2 µM | – |
| Cc1ccnc(NC(c2ccc3cccnc3c2O)c2c(F)c(F)c(OCC(F)(F)F)c(F)c2F)c1 (stereo not shown) [AD4-13092] | 0.21 µM | 0.16 µM | 3.9 µM | – |
| Cc1cccc(NC(c2cc(Cl)ccc2Cl)c2ccc3ccc(C)nc3c2O)n1 (stereo not shown) [AD4-13090] | – | – | – | IC50 (H1975 cells; NCI-H1975, MTT, 72 hours): 1.3 µM; IC50 (A549 cells; [5]): 0.16 µM; IC50 (HT-29 cells; [6]): 3.7 µM |
| Oc1c(C(Nc2cc(Cl)c(Cl)cn2)c2ccc(Cl)cc2)ccc2cccnc12 (stereo not shown) [AD4-13187] | 0.26 µM | 0.15 µM | 1.3 µM | – |
| Oc1c(C(Nc2ccc(C(F)(F)F)cn2)c2ccc(Cl)c(Cl)c2)ccc2cccnc12 (stereo not shown) [AD4-13030] | 0.22 µM | 0.17 µM | – | – |
| Oc1c(C(Nc2cc(Cl)ccn2)c2ccc(C(F)(F)F)c(F)c2)ccc2cccnc12 (stereo not shown) [AD4-13048] | 0.17 µM | 0.18 µM | – | – |
| Oc1c(C(Nc2cc(Cl)c(Cl)cn2)c2cc(Cl)cc(Cl)c2Cl)ccc2cccnc12 (stereo not shown) [AD4-13180] | 0.86 µM | 0.1 µM | 1.7 µM | – |
| Cc1cc(Cl)cnc1NC(c1ccc2cccnc2c1O)c1c(F)cccc1Cl (stereo not shown) [AD4-13135] | 0.21 µM | 0.18 µM | 0.79 µM | – |
| Oc1c(C(Nc2cc(Cl)ccn2)c2cc(C(F)(F)F)ccc2Cl)ccc2cccnc12 (stereo not shown) [AD4-13060] | 0.58 µM | 0.19 µM | – | – |
| Cc1nc(NC(c2cc(Cl)cc(Cl)c2Cl)c2ccc3cccnc3c2O)c(Cl)cc1Cl (stereo not shown) [AD4-13213] | – | 0.16 µM | 5.4 µM | – |
| Cc1cc(NC(c2ccc3cccnc3c2O)c2c(Cl)cccc2Cl)ncc1Cl (stereo not shown) [AD4-13148] | 0.31 µM | 0.13 µM | 1.1 µM | – |
| Cc1cc(Cl)cnc1NC(c1ccc(Cl)c(Cl)c1)c1ccc2cccnc2c1O (stereo not shown) [AD4-13119] | 0.12 µM | 0.18 µM | 1.5 µM | – |
| CS(=O)(=O)CCNCc1ccc(-c2ccc3ncnc(Nc4ccc(OCc5cccc(F)c5)c(Cl)c4)c3c2)o1 [Tykerb, reference compound] | – | – | – | IC50 (HT-29 cells; Homo sapiens, HT-29, 48 h, read-out: IC50, Comparison of Incubation Times in HT-29 Cell Proliferation Assay): 2.7 µM; IC50 (HT-29 cells; Homo sapiens, HT-29, 72 h, read-out: IC50, Comparison of Incubation Times in HT-29 Cell Proliferation Assay): 2.3 µM; IC50 (HT-29 cells; Homo sapiens, HT-29, read-out: HT-29 Cell Proliferation Assay Results (IC50)): 5 µM; IC50 (HT-29 cells; Homo sapiens, HT-29, read-out: IC50 from dose-response curves of FIG. 11, HT-29 cells): 2.7 µM; IC50 (HT-29 cells; read-out: HT-29 Cell Proliferation Assay Results (IC50)): 5.1 µM and 8.5 µM and 9.2 µM; IC50 (HT-29 cells; read-out: IC50, Comparison of Incubation Times in HT-29 Cell Proliferation Assay): 4.4 µM and 4.2 µM |
| CCc1cc(Cl)cnc1NC(c1ccc(Cl)cc1Cl)c1ccc2cccnc2c1O (stereo not shown) [AD4-13217] | – | 0.12 µM | 0.96 µM | – |
| Oc1c(C(Nc2cc(Cl)ccn2)c2ccc(C(F)(F)F)cc2F)ccc2cccnc12 (stereo not shown) [AD4-13046] | 0.12 µM | 0.16 µM | – | – |
| Cc1cc(NC(c2ccc(Cl)cc2Cl)c2ccc3cccnc3c2O)ncc1Cl (stereo not shown) [AD4-13123] | 0.36 µM | 0.12 µM | – | HLM % Remaining@ 30 Min [1]: 84%; MLM % Remaining@ 30 Min [2]: 30% |
| Oc1c(C(Nc2ccc(C(F)(F)F)cn2)c2ccc(C(F)(F)F)cc2F)ccc2cccnc12 (stereo not shown) [AD4-13031] | 0.24 µM | 0.12 µM | – | HLM % Remaining@ 30 Min [1]: 93%; MLM % Remaining@ 30 Min [2]: 87% |
| Cc1nc(NC(c2cc(Cl)cc(Cl)c2)c2ccc3cccnc3c2O)c(Cl)cc1Cl (stereo not shown) [AD4-13223] | – | 0.11 µM | 2.5 µM | – |
| Oc1c(C(Nc2ccc(C(F)(F)F)cn2)c2ccc(Cl)cc2Cl)ccc2cccnc12 (stereo not shown) [AD4-13033] | 0.23 µM | 0.13 µM | – | HLM % Remaining@ 30 Min [1]: 100%; MLM % Remaining@ 30 Min [2]: 84% |
| COc1cc(Cl)cnc1NC(c1cc(Cl)cc(Cl)c1)c1ccc2cccnc2c1O (stereo not shown) [AD4-13216] | – | 0.12 µM | 1.6 µM | – |
